Assay results reported in PubChem BioAssay (NCI).
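Method: 48-hour compound exposure of cells in 96-well plates, five concentrations, linear interpolation of endpoints. TGI is the concentration that stops growth completely.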

Tests used:
Test in all cases: NCI anticancer screen, dose series, 48 h
[1] = test system: SK-MEL-2 melanoma
[2] = test system: HOP-92 NSCLC
[3] = test system: COLO 205 colon
[4] = test system: 786-0 renal
[5] = test system: OVCAR-5 ovarian
[6] = test system: MDA-MB-231 breast
[7] = test system: SNB-19 CNS
[8] = test system: T-47D breast
[9] = test system: A549 NSCLC
[10] = test system: IGROV1 ovarian
[11] = test system: HOP-62 NSCLC
[12] = test system: UACC-62 melanoma
[13] = test system: MOLT-4 leukemia
[14] = test system: MDA-MB-435
[15] = test system: M14 melanoma
[16] = test system: BT-549 breast
[17] = test system: HT29 colon
[18] = test system: OVCAR-4 ovarian
[19] = test system: SF-539 CNS
[20] = test system: KM12 colon
[21] = test system: SK-MEL-5 melanoma
[22] = test system: SW-620 colon
[23] = test system: RPMI-8226 leukemia
[24] = test system: TK-10 renal
[25] = test system: MCF7 breast
[26] = test system: A498 renal
[27] = test system: MALME-3M melanoma
[28] = test system: HL-60(TB) leukemia
[29] = test system: K-562 leukemia
[30] = test system: NCI-H226 lung
[31] = test system: HS 578T breast
[32] = test system: SF-268 CNS
[33] = test system: SNB-75 CNS
[34] = test system: RXF 393 renal
[35] = test system: NCI/ADR-RES ovarian
[36] = test system: OVCAR-3 ovarian
[37] = test system: CAKI-1 renal
[38] = test system: U251 CNS
[39] = test system: NCI-H23 lung
[40] = test system: UACC-257 melanoma
[41] = test system: ACHN renal
[42] = test system: OVCAR-8 ovarian
[43] = test system: SK-MEL-28 melanoma
[44] = test system: CCRF-CEM leukemia
[45] = test system: SN12C renal
[46] = test system: SK-OV-3 ovarian
[47] = test system: HCT-116 colon
[48] = test system: PC-3 prostate
[49] = test system: NCI-H460 lung
[50] = test system: SR leukemia
[51] = test system: MDA-N
[52] = test system: UO-31 renal
[53] = test system: DU-145 prostate
[54] = test system: LOX IMVI melanoma
[55] = test system: EKVX NSCLC
[56] = test system: NCI-H522 lung
[57] = test system: SF-295 CNS
[58] = test system: HCT-15 colon
[59] = test system: HCC-2998 colon

## Cc1ccc(S(=O)(=O)N2CCC(C(=O)O)(c3ccccc3)CC2)cc1
[1]
  TGI: > 100 µM
[2]
  TGI: > 100 µM
[3]
  TGI: > 100 µM
[4]
  TGI: > 100 µM
[5]
  TGI: > 100 µM
[6]
  TGI: > 100 µM
[7]
  TGI: > 100 µM
[8]
  TGI: > 100 µM
[9]
  TGI: > 100 µM
[10]
  TGI: > 100 µM
[11]
  TGI: > 100 µM
[12]
  TGI: > 100 µM
[13]
  TGI: > 100 µM
[14]
  TGI: > 100 µM
[15]
  TGI: > 100 µM
[16]
  TGI: > 100 µM
[17]
  TGI: > 100 µM
[18]
  TGI: > 100 µM
[19]
  TGI: > 100 µM
[20]
  TGI: > 100 µM
[21]
  TGI: > 100 µM
[22]
  TGI: > 100 µM
[23]
  TGI: > 100 µM
[24]
  TGI: > 100 µM
[25]
  TGI: > 100 µM
[26]
  TGI: > 100 µM
[27]
  TGI: > 100 µM
[28]
  TGI: > 100 µM
[29]
  TGI: > 100 µM
[30]
  TGI: > 100 µM
[31]
  TGI: > 100 µM
[32]
  TGI: > 100 µM
[33]
  TGI: > 100 µM
[34]
  TGI: > 100 µM
[35]
  TGI: > 100 µM
[36]
  TGI: > 100 µM
[37]
  TGI: > 100 µM
[38]
  TGI: > 100 µM
[39]
  TGI: > 100 µM
[40]
  TGI: > 100 µM
[41]
  TGI: > 100 µM
[42]
  TGI: > 100 µM
[43]
  TGI: > 100 µM
[44]
  TGI: > 100 µM
[45]
  TGI: > 100 µM
[46]
  TGI: > 100 µM
[47]
  TGI: > 100 µM
[48]
  TGI: > 100 µM
[49]
  TGI: > 100 µM
[50]
  TGI: > 100 µM
[51]
  TGI: > 100 µM
[52]
  TGI: > 100 µM
[53]
  TGI: > 100 µM
[54]
  TGI: > 100 µM
[55]
  TGI: > 100 µM
[56]
  TGI: > 100 µM
[57]
  TGI: > 100 µM
[58]
  TGI: > 100 µM

## O=C(O)Cn1ccc(=O)c2cc([N+](=O)[O-])ccc21
[1]
  TGI: > 100 µM
[3]
  TGI: > 100 µM
[4]
  TGI: > 100 µM
[5]
  TGI: > 100 µM
[6]
  TGI: 33.5 µM
[7]
  TGI: > 100 µM
[8]
  TGI: > 100 µM
[9]
  TGI: > 100 µM
[10]
  TGI: > 100 µM
[11]
  TGI: > 100 µM
[12]
  TGI: > 100 µM
[13]
  TGI: > 100 µM
[14]
  TGI: > 100 µM
[59]
  TGI: > 100 µM
[15]
  TGI: > 100 µM
[16]
  TGI: > 100 µM
[17]
  TGI: > 100 µM
[19]
  TGI: > 100 µM
[20]
  TGI: > 100 µM
[21]
  TGI: > 100 µM
[22]
  TGI: > 100 µM
[24]
  TGI: > 100 µM
[25]
  TGI: > 100 µM
[26]
  TGI: > 100 µM
[27]
  TGI: > 100 µM
[28]
  TGI: > 100 µM
[29]
  TGI: > 100 µM
[30]
  TGI: > 100 µM
[31]
  TGI: > 100 µM
[32]
  TGI: > 100 µM
[33]
  TGI: > 100 µM
[35]
  TGI: > 100 µM
[36]
  TGI: > 100 µM
[37]
  TGI: > 100 µM
[38]
  TGI: > 100 µM
[39]
  TGI: > 100 µM
[40]
  TGI: > 100 µM
[41]
  TGI: > 100 µM
[42]
  TGI: > 100 µM
[43]
  TGI: > 100 µM
[44]
  TGI: > 100 µM
[45]
  TGI: > 100 µM
[46]
  TGI: > 100 µM
[47]
  TGI: > 100 µM
[48]
  TGI: > 100 µM
[49]
  TGI: > 100 µM
[50]
  TGI: > 100 µM
[51]
  TGI: > 100 µM
[52]
  TGI: > 100 µM
[53]
  TGI: > 100 µM
[56]
  TGI: > 100 µM
[57]
  TGI: > 100 µM
[58]
  TGI: > 100 µM
